Values of other authors, collected in patent publication US12116550B2, “Process of making a liquid conditioning composition” (The Procter & Gamble Company, priority 2020, dated 2024).

Conditions: nonionic surfactants of Table A, value reported for the trade product

Reported HLB | Substance
4.7 | Sorbitan monostearate [Span 60]
4.3 | Sorbitan monooleate [Span 80]
4.7 | Sorbitan isostearate [Span 120]
6.7 | Sorbitan monopalmitate [Span 40]
